Like-named read-outs stand apart in the source and are kept apart here.
Legend:
[1] = mice, three weeks after a seven day schedule; cited from earlier work
[2] = test system: Polyamine pools in L1210 cells; settings: 48 h of treatment, cited from earlier work
L1210 cells = assay: L1210 cell growth inhibition; format: cell-based; settings: Mus musculus
[3] = test system: Polyamine pools in L1210 cells; assay: Effect on polyamine pools in L1210 cells; format: cell-based; settings: 48 h of treatment

Compound: CCNCCCCNCCCCNCCCCNCC [DEHSPM, Diethylhomospermine]
- drug administered remaining in the liver and kidney as drug or metabolites [1]: 35%
- drug remaining in the animal in the form of HSPM [1]: 90%

Compound: FC(F)(F)CNCCCNCCCCNCCCNCC(F)(F)F [FDESPM]
- PUT ([2]; 100 µM): 100% of untreated controls
- SPD ([2]; 100 µM): 103% of untreated controls
- SPM ([2]; 100 µM): 108% of untreated controls

Compound: CCNCCCNCCC(N)CNCCCNCC (stereo not shown) [6-NH2-DESPM, 6 amino-N^1,N^12-diethylspermine]
- IC50 (L1210 cells; 48 h, read-out: IC50 48 h): 8 µM
- IC50 (L1210 cells; 96 h, read-out: IC50 96 h): 0.4 µM
- PUT ([3]; 10 µM): 39 ± 9% of untreated controls
- SPD ([3]; 10 µM): 16 ± 3% of untreated controls
- SPM ([3]; 10 µM): 54 ± 11% of untreated controls
- PUT ([3]; 50 µM): 26 ± 1% of untreated controls
- SPD ([3]; 50 µM): 7 ± 0% of untreated controls
- SPM ([3]; 50 µM): 32 ± 1% of untreated controls

Compound: CCNCCCNCCCCNCCCNCC [DESPM]
- PUT ([2]; 30 µM): 0% of untreated controls
- SPD ([2]; 30 µM): 0% of untreated controls
- SPM ([2]; 30 µM): 12% of untreated controls
- PUT ([2]; 150 µM): 0% of untreated controls
- SPD ([2]; 150 µM): 0% of untreated controls
- SPM ([2]; 150 µM): 14% of untreated controls
